What was measured:
SPP1 = test: Whole genome mRNA profiling, whole blood + RANTES: SPP1; format: cell-based, human; conditions: probe 209875_s_at; healthy volunteer whole blood, RANTES 100 nM +/- BMS-817399 1 uM; 24 hours
Description: (§1) Gene profiling experiments to identify genes downstream of CCR1 signaling (via CCR1 ligand stimulation) were performed. It was shown that these genes were blocked following treatment with a CCR1 antagonist. Whole blood from three healthy volunteers was treated with RANTES (100 nM, CCL5), in the presence and absence of the CCR1 antagonist (50 nM, 1 μM) for 4 and 24 hours. Following the incubation, mRNA was isolated for whole genome mRNA profiling.
(§2) Lyophilized human recombinant CCR1 ligand RANTES (Peprotech, Rocky Hill, N.J.) was reconstituted to 100 μM per the manufacturer's instructions. BMS-817399 was reconstituted to 10 mM in 100% DMSO (Sigma-Aldrich, St. Louis Mo.) and further diluted 1:50 in 10% DMSO. […] RNA quantity and quality were assessed on the ND-8000 spectrophotometer (Thermo Scientific, Wilmington, Del.) and RNA integrity was assessed on the AGILENT® 2100 Bioanalyzer using the RNA 6000 Nano Lab Chip kit (Agilent Technologies, Santa Clara, Calif.).
(§3) RNA samples with yields ≧1.5 μg and RIN (RNA integrity number) values of 6.5 and above were randomized in 96-well plates and normalized to a concentration of 250 ng/μL in preparation for microarray analysis. […] Data obtained from the microarray analysis were analyzed by statisticians internal to Bristol-Myers Squibb. […]

CLEC5A [1] = test: Whole genome mRNA profiling, whole blood + RANTES: CLEC5A; format: cell-based, human; conditions: probe 219890_at; healthy volunteer whole blood, RANTES 100 nM +/- BMS-817399 1 uM; 4 hours
Description: as §1, §2, §3

CSPG2 = test: Whole genome mRNA profiling, whole blood + RANTES: CSPG2; format: cell-based, human; conditions: probe 204620_s_at; healthy volunteer whole blood, RANTES 100 nM +/- BMS-817399 1 uM
Description: as §1, §2, §3

FPRL2 = test: Whole genome mRNA profiling, whole blood + RANTES: FPRL2; format: cell-based, human; conditions: probe 214560_at; healthy volunteer whole blood, RANTES 100 nM +/- BMS-817399 1 uM; 4 hours
Description: as §1, §2, §3

CD86 = test: Whole genome mRNA profiling, whole blood + RANTES: CD86; format: cell-based, human; conditions: probe 210895_s_at; healthy volunteer whole blood, RANTES 100 nM +/- BMS-817399 1 uM
Description: as §1, §2, §3

MERTK [2] = test: Whole genome mRNA profiling, whole blood + RANTES: MERTK; format: cell-based, human; conditions: probe 206028_s_at; healthy volunteer whole blood, RANTES 100 nM +/- BMS-817399 1 uM; 4 hours
Description: as §1, §2, §3

KYNU = test: Whole genome mRNA profiling, whole blood + RANTES: KYNU; format: cell-based, human; conditions: probe 217388_s_at; healthy volunteer whole blood, RANTES 100 nM +/- BMS-817399 1 uM
Description: as §1, §2, §3

PHLDA2 = test: Whole genome mRNA profiling, whole blood + RANTES: PHLDA2; format: cell-based, human; conditions: probe 209803_s_at; healthy volunteer whole blood, RANTES 100 nM +/- BMS-817399 1 uM
Description: as §1, §2, §3

FCN1 = test: Whole genome mRNA profiling, whole blood + RANTES: FCN1; format: cell-based, human; conditions: probe 206237_at; healthy volunteer whole blood, RANTES 100 nM +/- BMS-817399 1 uM; 24 hours
Description: as §1, §2, §3

TLR8 = test: Whole genome mRNA profiling, whole blood + RANTES: TLR8; format: cell-based, human; conditions: probe 220832_at; healthy volunteer whole blood, RANTES 100 nM +/- BMS-817399 1 uM
Description: as §1, §2, §3

CLEC5A [3] = test: In vitro treatment of RA patient whole blood, qRT-PCR: CLEC5A; format: cell-based, human; conditions: 500 nM CCR1 antagonist, 3 hours
Description: (§4) FIGS. 3A-B show relative CLEC5A and MERTK expression levels in RA patient blood. Whole blood from RA patients was shipped overnight and treated with 500 nM CCR1 antagonist for 3 hours. RNA was isolated and analyzed by qRT-PCR. Expression levels are represented as mRNA levels relative to the untreated control samples as a function of treatment condition. Percent inhibition of gene expression by the investigational drug was calculated and is represented as “% change”. C-reactive protein (CRP) levels of subjects, as determined by Bioreclamation, are listed as well.
(§5) Whole blood, collected from RA patients, was stimulated with 500 nM of a CCR1 antagonist for 3 hours at 37° C. After the incubation, RNA was isolated and the gene expression levels of CLEC5A, MERTK, and the endogenous control HPRT1 were assessed by qRT-PCR for each subject. CLEC5A and MERTK mRNA levels (normalized to that of HPRT1) were calculated relative to the untreated control sample for each patient.
(§6) Whole blood, drawn in EDTA VACUTAINER® tubes from RA patients, was obtained from Bioreclamation for in vitro treatment with BMS-817399 and subsequent qRT-PCR analysis. […] Serum CRP and whole blood ESR levels of qualified subjects were also assessed by Bioreclamation. […] Data were analyzed in the SDS software for relative quantitation. […]

MERTK [4] = test: In vitro treatment of RA patient whole blood, qRT-PCR: MERTK; format: cell-based, human; conditions: 500 nM CCR1 antagonist, 3 hours
Description: as §4, §5, §6

CLEC5A [5] = test: Phase 1 trial, ex vivo RANTES-stimulated whole blood qRT-PCR: CLEC5A; format: in vivo, human; conditions: healthy volunteers, single and multiple oral doses; ex vivo 25 nM RANTES, 2 hours, 37° C.
Description: (§7) FIGS. 2A-D show relative CLEC5A and MERTK expression levels in a Phase I clinical trial. Healthy volunteers were treated with single or multiple doses of a CCR1 antagonist through oral administration at various dose levels; blood samples from subjects were treated ex vivo with CCR1 ligand RANTES. RNA was isolated and analyzed by qRT-PCR. Expression levels are represented as (negative) change in median CT (cycle threshold) value between the target (CLEC5A or MERTK) and the endogenous control (GAPDH) as a function of time.
(§8) In this study (Example 2), healthy volunteers were treated with single or multiple doses of a CCR1 antagonist through oral administration at various dose levels. Pharmacodynamic effects of the compound were assessed using an ex vivo functional assay at various times post dosing. For the assay, whole blood was collected at indicated time points following dosing with the CCR1 antagonist and stimulated ex vivo for 2 hours at 37° C. with 25 nM recombinant human RANTES. After the incubation, RNA was isolated and CLEC5A and MERTK mRNA levels, relative to the GAPDH housekeeping gene, were measured by qRT-PCR in triplicate at each time-point for each subject. The median cycle time (CT) for each gene was evaluated and changes in the CT values (ΔCT) were calculated by subtracting the median GAPDH CT value from the corresponding median values for CLEC5A CT or MERTK CT. […]

MERTK [6] = test: Phase 1 trial, ex vivo RANTES-stimulated whole blood qRT-PCR: MERTK; format: in vivo, human; conditions: healthy volunteers, single and multiple oral doses; ex vivo 25 nM RANTES, 2 hours, 37° C.
Description: as §7, §8

[7] = Phase 1 trial in healthy human subjects: safety; format: in vivo
Excerpt: Current standard of care for the treatment of RA includes disease-modifying anti-rheumatic drugs that decrease immune activation and subsequent inflammation. However, a large proportion of patients are non-responsive to these medications, thus resulting in progression of disease symptoms. […] Further, identification of predictive biomarkers may allow for patient stratification in future clinical trials. Identification of patients most likely to respond favorably to the CCR1 antagonist may provide justification for use of a CCR1 antagonist earlier in the course of treatment, potentially preventing extensive structural damage of the joints.

CC(C)[C@@H](NC(=O)NCC(C)(C)O)C(=O)N1CC[C@](O)(c2ccc(Cl)cc2)C(C)(C)C1 [BMS-817399]
SPP1 (osteopontin) expression, Fold Change (SPP1): −6.547
SPP1 (osteopontin) expression, Mean (SPP1): −2.711
CLEC5A expression, Fold Change (CLEC5A [1]): −5.123
CLEC5A expression, Mean (CLEC5A [1]): −2.357
CSPG2 (versican) expression, Fold Change (CSPG2): −4.39
CSPG2 (versican) expression, Mean (CSPG2): −2.134
FPRL2 expression, Fold Change (FPRL2): −3.571
FPRL2 expression, Mean (FPRL2): −1.836
CD86 expression, Fold Change (CD86): −2.559
CD86 expression, Mean (CD86): −1.356
MERTK expression, Fold Change (MERTK [2]): −2.417
MERTK expression, Mean (MERTK [2]): −1.274
KYNU (kynureninase) expression, Fold Change (KYNU): −2.32
KYNU (kynureninase) expression, Mean (KYNU): −1.214
PHLDA2 expression, Fold Change (PHLDA2): −2.252
PHLDA2 expression, Mean (PHLDA2): −1.171
FCN1 (ficolin 1) expression, Fold Change (FCN1): −2.234
FCN1 (ficolin 1) expression, Mean (FCN1): −1.16
TLR8 expression, Fold Change (TLR8): −2.232
TLR8 expression, Mean (TLR8): −1.158
decrease of CLEC5A expression levels relative to the untreated control samples (CLEC5A [3]): more than 30%
decrease of MERTK expression levels relative to the untreated control samples (MERTK [4]): more than 30%
inhibition of CLEC5A gene expression in whole blood (CLEC5A [5]): rapid and potent inhibition
inhibition of MERTK gene expression in whole blood (MERTK [6]): rapid and potent inhibition
safety profile [7]: acceptable safety profile
